Measurements from patent US9273364B2 (Kyoto University, priority 2010, dated 2016).
Where two headings read alike, the source gives them in different places.

Tested on: alternative splicing of a specific gene (GFP/RFP reporter)
Assay: Compound screen with GFP/RFP alternative splicing reporter
Type: cell-based
From the text: Strategy of a method for testing whether or not a compound to be tested affects an alternative splicing of a specific gene in a mammalian multicelluar organism is shown in FIG. 14.
The reporter proteins used for the method are GFP and FRP.

[1] = cell count after compound at final conc., Ctrl number of cells 4303-5627
[2] = reporter ratio relative to control = 1, final conc. per compound (μM, 50 ng/mL)

Compound	Number of cells (50 ng/mL)	Number of cells	further results
CC(=O)OC[C@H]1O[C@@H]([S-])[C@H](OC(C)=O)[C@@H](OC(C)=O)[C@@H]1OC(C)=O.CCP(CC)CC.[Au+] [Auranofin]			GFP/RFP (Ctrl = 1): 4.915; Number of cells [1]: 1
CC(C)Cn1cnc2c(N)nc3ccccc3c21 (racemic) [Imiquimod]	1944		
CC(C)NCC(O)c1ccc(O)c(O)c1.Cl (racemic) [Isoproterenol HCl (rac)]		3953	GFP/RFP (Ctrl = 1) [2]: 1.614
C[C@]12C=CC(=O)C=C1CC[C@@H]1[C@@H]2[C@@H](O)C[C@@]2(C)[C@H]1CC[C@]2(O)C(=O)CO (racemic) [Prednisolone]	2900		
COc1cc(CNC(=O)CCCC/C=C/C(C)C)ccc1O [Capsaicin]			Number of cells [1]: 1918
C[C@@H](O[C@H]1OCCN(Cc2n[nH]c(=O)[nH]2)[C@H]1c1ccc(F)cc1)c1cc(C(F)(F)F)cc(C(F)(F)F)c1 (racemic) [Aprepitant]		2165	
CCOC(=O)C1=C(C)NC(C)=C(C(=O)OC)C1c1cccc(Cl)c1Cl (stereo not shown) [Felodipine]	116		
Cl.O=C(O)c1cn(-c2ccc(F)cc2)c2cc(N3CCNCC3)c(F)cc2c1=O [Satafloxacin HCl]		3105	GFP/RFP (Ctrl = 1) [2]: 1.341
O=c1[nH]c(=O)n([C@H]2C[C@H](O)[C@@H](CO)O2)cc1I (racemic) [Idoxuridine]	1924		
CCN(CC)C(=S)SSC(=S)N(CC)CC (racemic) [Disulfiram]	31		
Clc1ccc(COC(Cn2ccnc2)c2ccc(Cl)cc2Cl)c(Cl)c1 (racemic) [Miconazole]	808		
CCN(CC)CCCC(C)Nc1c2ccc(Cl)cc2nc2ccc(OC)cc12.Cl.Cl.O.O (stereo not shown) [Quinacrine 2HCl dihydrate]		5	GFP/RFP (Ctrl = 1) [2]: 3.153
Cc1cc2c(OCC(CNC(C)(C)C)OC(=O)c3ccccc3)cccc2[nH]1.O=C(O)CC(=O)O (stereo not shown) [Bopindolol malonate]		3625	GFP/RFP (Ctrl = 1) [2]: 1.265
C=C1/C(=C\C=C2/CCC[C@]3(C)[C@@H]([C@H](C)CCCC(C)C)CC[C@@H]23)C[C@@H](O)C[C@@H]1O (racemic) [Alfacalcidol]		861	
NC1CCN(c2nc3c(cc2F)c(=O)c(C(=O)O)cn3-c2ccc(F)cc2F)C1 (racemic) [Tosufloxacin]		2590	
COc1cc2c(cc1OC)-c1c/c(=N\c3c(C)cc(C)cc3C)n(C)c(=O)n1CC2 [Trequinsin]		3009	
COc1cc([C@@H]2c3cc4c(cc3[C@@H](O[C@@H]3O[C@@H]5CO[C@@H](C)O[C@H]5[C@H](O)[C@H]3O)[C@H]3COC(=O)[C@H]23)OCO4)cc(OC)c1O [Etoposide]	055		
COC(=O)N/N=C/c1c[n+]([O-])c2ccccc2[n+]1[O-] (racemic) [Carbadox]			Number of cells [1]: 2293
CC(C(=O)O)c1ccc2c(c1)Cc1cccnc1O2 (racemic) [Pranoprofen]	3050		
CCC(C)n1ncn(-c2ccc(N3CCN(c4ccc(OCC5COC(Cn6cncn6)(c6ccc(Cl)cc6Cl)O5)cc4)CC3)cc2)c1=O (racemic) [Itraconazole]	344		
CCCOc1ccc2nc(NC(=O)OC)[nH]c2c1 (racemic) [Oxibendazole]			Number of cells [1]: 786
O=c1[nH]cc(F)c(=O)[nH]1 (racemic) [5-fluorouracil]	433		
C[C@]12CCC(=O)C=C1CC[C@@H]1[C@@H]2[C@@H](O)C[C@@]2(C)[C@H]1CC[C@]2(O)C(=O)CO (racemic) [Hydrocortisone]		3105	
N=C(N)c1ccc(OCCCCCOc2ccc(C(=N)N)cc2)cc1 [Pentamidine]	2694		

Compound	Number of cells (50 ng/mL)	Number of cells	further results
C[C@H]1[C@H](OC(=O)CCC(=O)O)O[C@@H]2O[C@@]3(C)CC[C@H]4[C@H](C)CC[C@@H]1[C@@]24OO3 [Artesunate]	246		
COc1cc(-c2ccc(=O)[nH]n2)ccc1OC(F)F [Zardaverine]			Number of cells [1]: 2744
CC1=C(/C=C/C(C)=C/C=C/C(C)=C/C(=O)O)C(C)(C)CCC1 [Retinoic acid]		2697	
Cc1nc(C)c(Cl)c(O)c1Cl (racemic) [Clopidol]			Number of cells [1]: 3230
Cc1oncc1C(=O)Nc1ccc(C(F)(F)F)cc1 (racemic) [Leflunomide]	1963		
CC(C)C[C@H](NC(=O)[C@H](Cc1ccccc1)NC(=O)c1cnccn1)B(O)O (racemic) [Bortezomib]	74		
CCc1nn(CCCN2CCN(c3cccc(Cl)c3)CC2)c(=O)n1CCOc1ccccc1 (racemic) [Nefazodone]		2966	
CC[C@@]1(O)C[C@H](O[C@H]2C[C@H](N(C)C)[C@H](O[C@H]3C[C@H](O)[C@H](O[C@H]4CCC(=O)[C@H](C)O4)[C@H](C)O3)[C@H](C)O2)c2c(cc3c(c2O)C(=O)c2c(O)cccc2C3=O)[C@H]1C(=O)OC [Aclarubicin]			Number of cells [1]: 10
Apomorphine r (−)			GFP/RFP (Ctrl = 1): 1.357; Number of cells [1]: 3372
CNC[C@H](O)c1ccc(O)c(O)c1.O=C(O)C(O)C(O)C(=O)O [Epinephrine-(+)-tartrate l (−)]		4057	GFP/RFP (Ctrl = 1) [2]: 1.528
CC(C)NCC(O)COc1cccc2ccccc12 (stereo not shown) [Propranolol]	2641		
COc1ncnc(NS(=O)(=O)c2ccc(N)cc2)c1OC (racemic) [Sulfadoxine]	2876		
C[C@H]1C[C@@H]2[C@H]([C@@H](O)C[C@@]3(C)[C@H]2CC[C@]3(O)C(=O)CO)[C@@]2(C)C=CC(=O)C=C12 (racemic) [Methylprednisolone]	3084		
CC(=O)O[C@@]12CO[C@@H]1C[C@H](O)[C@@]1(C)C(=O)[C@H](O)C3=C(C)[C@@H](OC(=O)[C@H](O)[C@@H](NC(=O)OC(C)(C)C)c4ccccc4)C[C@@](O)([C@@H](OC(=O)c4ccccc4)[C@H]21)C3(C)C [Docetaxil]		1194	GFP/RFP (Ctrl = 1) [2]: 1.862
O=NN(CCCl)C(=O)NC1CCCCC1 (racemic) [Lomustine]		1241	
C[C@@H]1CN(c2c(F)c(N)c3c(=O)c(C(=O)O)cn(C4CC4)c3c2F)C[C@H](C)N1 [Sparfloxacin]	3029		
NC[C@H](O)c1ccc(O)c(O)c1.O=C(O)C(O)C(O)C(=O)O [Norepinephrine-(+)-tartrate l (−)]		4210	GFP/RFP (Ctrl = 1) [2]: 1.594
CO[C@@]12[C@H](COC(N)=O)C3=C(C(=O)C(C)=C(N)C3=O)N1C[C@@H]1N[C@@H]12 [Mitomycin c]			GFP/RFP (Ctrl = 1): 3.767; Number of cells [1]: 319
CC[C@@]1(O)C(=O)OCc2c1cc1n(c2=O)Cc2cc3ccccc3nc2-1 [Camptothecin]			Number of cells [1]: 385
COc1ccnc(C[S+]([O-])c2nc3ccc(OC(F)F)cc3[nH]2)c1OC (racemic) [Pantoprazole]			Number of cells [1]: 3112
Cc1c(Cl)cccc1Nc1ccccc1C(=O)O (racemic) [Tolfenamic acid]		2697	
CN1C(C(=O)Nc2ccccn2)=C(O)c2sccc2S1(=O)=O (racemic) [Tenoxicam]	2916		
CO[C@H]1C[C@@H]2CC[C@@H](C)[C@@](O)(O2)C(=O)C(=O)N2CCCC[C@H]2C(=O)O[C@H]([C@H](C)C[C@@H]2CC[C@@H](O)[C@H](OC)C2)CC(=O)[C@H](C)/C=C(\C)[C@@H](O)[C@@H](OC)C(=O)[C@H](C)C[C@H](C)/C=C/C=C/C=C/1C [Rapamycin]			Number of cells [1]: 2046
CC(N)C(O)c1ccccc1 (racemic) [Phenylpropanolamine]			Number of cells [1]: 2551
